PubChem BioAssay AID248 (DTP/NCI, 2004)
Where “and” joins values, the source holds several entries; their conditions need not be identical. Equal values may be shown once. Inconclusive results and toxic doses are left out. Cut-off read from the data, not from the text of the source: active = T/C of 150% or more; inactive = T/C below 125%.

System: L1210 leukemia ip in BDF1 mice, survival T/C
Experiment: NCI In Vivo Anticancer Drug Screen. Data for tumor model L1210 Leukemia (intraperitoneal) in B6D2F1 (BDF1) mice
Details: endpoint: mean survival time, higher = longer survival
Summary of the method: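 Transplantable tumor model; survival measured in treated vs vehicle control mice. Value = treated/control.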

[1] = dose: 100.0 mg/kg/injection, schedule: Q04DX002 (ip), vehicle: saline
[2] = dose: 200.0 mg/kg/injection, schedule: Q04DX002 (ip), vehicle: saline
[3] = dose: 400.0 mg/kg/injection, schedule: Q04DX002 (ip), vehicle: saline
[4] = dose: 100.0 mg/kg/injection, schedule: Q01DX009 (ip), vehicle: Klucel (hydroxypropylcellulose) (HPC)
[5] = dose: 100.0 mg/kg/injection, schedule: Q04DX003 (ip), vehicle: other
[6] = dose: 200.0 mg/kg/injection, schedule: Q01DX009 (ip), vehicle: Klucel (hydroxypropylcellulose) (HPC)
[7] = dose: 400.0 mg/kg/injection, schedule: Q01DX009 (ip), vehicle: Klucel (hydroxypropylcellulose) (HPC)
[8] = dose: 400.0 mg/kg/injection, schedule: Q04DX003 (ip), vehicle: other
[9] = dose: 100.0 mg/kg/injection, schedule: Q01DX001 (ip), vehicle: saline
[10] = dose: 200.0 mg/kg/injection, schedule: Q01DX001 (ip), vehicle: saline
[11] = dose: 100.0 mg/kg/injection, schedule: Q01DX009 (ip), vehicle: saline with Tween-80
[12] = dose: 200.0 mg/kg/injection, schedule: Q01DX009 (ip), vehicle: saline with Tween-80

Measured: T/C

O=C(Nc1ccc(C2=NCCCN2)cc1)c1ccc(C(=O)Nc2ccc(C3=NCCCN3)cc2)c(Cl)c1
inactive: dose: 0.04 mg/kg/injection, schedule: Q01DX015 (ip), vehicle: water 98 % of control | dose: 0.09 mg/kg/injection, schedule: Q01DX015 (ip), vehicle: water 101 % of control | dose: 0.18 mg/kg/injection, schedule: Q01DX015 (ip), vehicle: water 95 % of control | dose: 0.37 mg/kg/injection, schedule: Q01DX015 (ip), vehicle: water 101 % of control | dose: 0.75 mg/kg/injection, schedule: Q01DX015 (ip), vehicle: water 107 % of control

O=[N+]([O-])c1ccccc1CN1CCCCC1
inactive: dose: 5.0 mg/kg/injection, schedule: Q01DX001 (ip), vehicle: saline 102 % of control | dose: 10.0 mg/kg/injection, schedule: Q01DX001 (ip), vehicle: saline 102 % of control | dose: 20.0 mg/kg/injection, schedule: Q01DX001 (ip), vehicle: saline 102 % of control

CCO/C=N/N(C)c1n[n+]([O-])ccc1C
inactive: [1] 110 % of control | [2] 104 % of control | [3] 101 % of control

CCCCCCC[CH2][Sn]([Cl])([Cl])[CH2]CCCCCCC
inactive: dose: 50.0 mg/kg/injection, schedule: Q01DX001 (ip), vehicle: carboxymethylcellulose (CMC) 96 % of control | dose: 100.0 mg/kg/injection, schedule: Q01DX001 (ip), vehicle: carboxymethylcellulose (CMC) 96 % of control | dose: 200.0 mg/kg/injection, schedule: Q01DX001 (ip), vehicle: carboxymethylcellulose (CMC) 96 % of control | dose: 400.0 mg/kg/injection, schedule: Q01DX001 (ip), vehicle: carboxymethylcellulose (CMC) 96 % of control

Nc1cc(Cl)nc(Cl)n1
inactive: dose: 29.0 mg/kg/injection, schedule: Q01DX Z (ip), vehicle: methylcellulose (MC) 89 % of control | dose: 45.0 mg/kg/injection, schedule: Q01DX Z (ip), vehicle: methylcellulose (MC) 100 % of control | dose: 67.0 mg/kg/injection, schedule: Q01DX Z (ip), vehicle: methylcellulose (MC) 96 % of control | dose: 100.0 mg/kg/injection, schedule: Q01DX Z (ip), vehicle: methylcellulose (MC) 92 % of control

C/C(=C\c1ccccc1)C(=O)c1ccccc1
inactive: dose: 6.25 mg/kg/injection, schedule: Q01DX009 (ip), vehicle: water 109 % of control | dose: 12.5 mg/kg/injection, schedule: Q01DX009 (ip), vehicle: water 107 % of control | dose: 25.0 mg/kg/injection, schedule: Q01DX009 (ip), vehicle: water 101 % of control and 91 % of control | dose: 50.0 mg/kg/injection, schedule: Q01DX009 (ip), vehicle: water 95 % of control and 112 % of control | [4] 93 % of control | dose: 100.0 mg/kg/injection, schedule: Q01DX009 (ip), vehicle: other 113 % of control | dose: 100.0 mg/kg/injection, schedule: Q01DX009 (ip), vehicle: water 101 % of control and 106 % of control | dose: 100.0 mg/kg/injection, schedule: Q04DX002 (ip), vehicle: Klucel (hydroxypropylcellulose) (HPC) 100 % of control | [5] 101 % of control | [6] 98 % of control | dose: 200.0 mg/kg/injection, schedule: Q01DX009 (ip), vehicle: other 101 % of control | dose: 200.0 mg/kg/injection, schedule: Q01DX009 (ip), vehicle: water 104 % of control and 107 % of control | dose: 200.0 mg/kg/injection, schedule: Q04DX002 (ip), vehicle: Klucel (hydroxypropylcellulose) (HPC) 92 % of control | dose: 200.0 mg/kg/injection, schedule: Q04DX003 (ip), vehicle: other 101 % of control | [7] 105 % of control | dose: 400.0 mg/kg/injection, schedule: Q01DX009 (ip), vehicle: other 108 % of control | dose: 400.0 mg/kg/injection, schedule: Q01DX009 (ip), vehicle: water 106 % of control | dose: 400.0 mg/kg/injection, schedule: Q04DX002 (ip), vehicle: Klucel (hydroxypropylcellulose) (HPC) 95 % of control | [8] 100 % of control

COC(=O)/C=C(/Nc1cc(Cl)cc(Cl)c1)C(=O)OC
inactive: [9] 95 % of control | [5] 86 % of control | [10] 98 % of control | dose: 400.0 mg/kg/injection, schedule: Q01DX001 (ip), vehicle: saline 90 % of control | [8] 104 % of control

O=CC(O)C(O)C(O)C(O)COP(=O)(O)O (centres undefined)
inactive: dose: 25.0 mg/kg/injection, schedule: Q01DX009 (ip), vehicle: saline 102 % of control | dose: 50.0 mg/kg/injection, schedule: Q01DX009 (ip), vehicle: saline 93 % of control | dose: 100.0 mg/kg/injection, schedule: Q01DX009 (ip), vehicle: saline 88 % of control

NC(N)=Nc1ccc(C(=O)O)cc1
inactive: [11] 107 % of control | [12] 103 % of control

Cc1cnc(C#N)c(C#N)n1
inactive: dose: 12.5 mg/kg/injection, schedule: Q04DX002 (ip), vehicle: Klucel (hydroxypropylcellulose) (HPC) 100 % of control | dose: 25.0 mg/kg/injection, schedule: Q04DX002 (ip), vehicle: Klucel (hydroxypropylcellulose) (HPC) 96 % of control | dose: 50.0 mg/kg/injection, schedule: Q04DX002 (ip), vehicle: Klucel (hydroxypropylcellulose) (HPC) 96 % of control

O=C(O)/C(S)=C\c1ccc(Cl)cc1
inactive: [9] 97 % of control | [10] 94 % of control

COC1/C=C/OC2(C)Oc3c(C)c(O)c4c(O)c(c(/C=N/N(C)c5ncnc6c5ncn6C5OC(CO)C(O)C5O)c(O)c4c3C2=O)NC(=O)C(C)=C/C=C/C(C)C(O)C(C)C(O)C(C)C(OC(C)=O)C1C (centres undefined)
inactive: dose: 200.0 mg/kg/injection, schedule: Q01DX009 (ip), vehicle: saline 87 % of control | dose: 400.0 mg/kg/injection, schedule: Q01DX009 (ip), vehicle: saline 94 % of control

CN1CCC23c4ccccc4NC1C21CCN(C)C3Nc2ccccc21
inactive: dose: 6.25 mg/kg/injection, schedule: Q01DX Z (ip), vehicle: saline 97 % of control | dose: 12.5 mg/kg/injection, schedule: Q01DX Z (ip), vehicle: saline 110 % of control | dose: 25.0 mg/kg/injection, schedule: Q01DX Z (ip), vehicle: saline 100 % of control | dose: 50.0 mg/kg/injection, schedule: Q01DX Z (ip), vehicle: saline 101 % of control | [4] 107 % of control | [6] 96 % of control

Cc1ccc(Cl)cc1NC(=O)Nc1ccc(N(C)C)cc1
inactive: dose: 100.0 mg/kg/injection, schedule: Q01DX001 (ip), vehicle: saline with Tween-80 92 % of control | [11] 87 % of control and 90 % of control | dose: 100.0 mg/kg/injection, schedule: Q04DX002 (ip), vehicle: saline with Tween-80 95 % of control and 90 % of control | dose: 100.0 mg/kg/injection, schedule: Q04DX003 (ip), vehicle: saline with Tween-80 92 % of control | dose: 200.0 mg/kg/injection, schedule: Q01DX001 (ip), vehicle: saline with Tween-80 87 % of control | [12] 89 % of control and 90 % of control | dose: 200.0 mg/kg/injection, schedule: Q04DX002 (ip), vehicle: saline with Tween-80 98 % of control and 87 % of control | dose: 200.0 mg/kg/injection, schedule: Q04DX003 (ip), vehicle: saline with Tween-80 92 % of control | dose: 400.0 mg/kg/injection, schedule: Q01DX001 (ip), vehicle: saline with Tween-80 87 % of control | dose: 400.0 mg/kg/injection, schedule: Q01DX009 (ip), vehicle: saline with Tween-80 97 % of control and 91 % of control | dose: 400.0 mg/kg/injection, schedule: Q04DX002 (ip), vehicle: saline with Tween-80 87 % of control | dose: 400.0 mg/kg/injection, schedule: Q04DX003 (ip), vehicle: saline with Tween-80 89 % of control

CNC(=O)c1ccc[n+](CC(=O)Nc2ccccc2)c1
inactive: dose: 100.0 mg/kg/injection, schedule: Q04DX003 (ip), vehicle: saline 92 % of control | dose: 200.0 mg/kg/injection, schedule: Q04DX003 (ip), vehicle: saline 102 % of control

CC1CN=C(c2ccc(O)c(O)c2)S1 (centres undefined)
inactive: [1] 107 % of control | [2] 107 % of control | [3] 100 % of control

COc1c(C)cccc1[N+](=O)[O-]
inactive: [4] 104 % of control | dose: 100.0 mg/kg/injection, schedule: Q04DX003 (ip), vehicle: Klucel (hydroxypropylcellulose) (HPC) 98 % of control | [6] 101 % of control | dose: 200.0 mg/kg/injection, schedule: Q04DX003 (ip), vehicle: Klucel (hydroxypropylcellulose) (HPC) 104 % of control | [7] 101 % of control | dose: 400.0 mg/kg/injection, schedule: Q04DX003 (ip), vehicle: Klucel (hydroxypropylcellulose) (HPC) 101 % of control
